Test results taken from publication PMC8792282 (Redox Biology, 2022).
Where two headings read alike, the source gives them in different places.

Assays:
[1] = molecular target: T1, Protein disulfide isomerase (PDI) (Homo sapiens, UniProt P07237); test: insulin reduction assay; format: biochemical
[2] = molecular target: T1, Protein disulfide isomerase (PDI); test: insulin reduction assay; format: biochemical; remark: listed apart in the source

T1 sequence (P07237 18-508): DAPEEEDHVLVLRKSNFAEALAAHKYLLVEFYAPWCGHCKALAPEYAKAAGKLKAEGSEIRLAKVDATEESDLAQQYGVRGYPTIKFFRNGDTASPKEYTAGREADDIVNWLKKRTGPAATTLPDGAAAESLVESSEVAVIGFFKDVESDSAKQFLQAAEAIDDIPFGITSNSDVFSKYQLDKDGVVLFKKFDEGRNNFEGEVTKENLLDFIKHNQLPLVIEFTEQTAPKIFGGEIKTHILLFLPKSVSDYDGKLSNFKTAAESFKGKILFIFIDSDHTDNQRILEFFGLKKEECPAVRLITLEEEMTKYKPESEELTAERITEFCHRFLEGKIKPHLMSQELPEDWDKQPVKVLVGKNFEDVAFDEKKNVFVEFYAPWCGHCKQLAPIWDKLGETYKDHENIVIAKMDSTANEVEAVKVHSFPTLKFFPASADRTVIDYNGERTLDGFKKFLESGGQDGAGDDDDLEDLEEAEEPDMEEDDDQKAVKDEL

Molecule | IC50 [1] [µM] | IC50 [2] [µM]
C[C@@H]1O[C@@H](OC[C@H]2O[C@@H](Oc3c(-c4ccc(O)c(O)c4)oc4cc(O)cc(O)c4c3=O)[C@H](O)[C@@H](O)[C@@H]2O)[C@H](O)[C@H](O)[C@H]1O [rutin] | 4.5 | –
bepristat 2a | – | 0.7
